Test results from article PMC4406830 (Biochemistry, 2015).

Tests used:
MtmC [1] = biological target: T1, MtmC (Streptomyces argillaceus, UniProt Q194Q4); test: crystal structure, […] Å; assay type: binding; settings: binary complex; central-domain site; crystals pH 5.5
T1 sequence (Q194Q4 1-420): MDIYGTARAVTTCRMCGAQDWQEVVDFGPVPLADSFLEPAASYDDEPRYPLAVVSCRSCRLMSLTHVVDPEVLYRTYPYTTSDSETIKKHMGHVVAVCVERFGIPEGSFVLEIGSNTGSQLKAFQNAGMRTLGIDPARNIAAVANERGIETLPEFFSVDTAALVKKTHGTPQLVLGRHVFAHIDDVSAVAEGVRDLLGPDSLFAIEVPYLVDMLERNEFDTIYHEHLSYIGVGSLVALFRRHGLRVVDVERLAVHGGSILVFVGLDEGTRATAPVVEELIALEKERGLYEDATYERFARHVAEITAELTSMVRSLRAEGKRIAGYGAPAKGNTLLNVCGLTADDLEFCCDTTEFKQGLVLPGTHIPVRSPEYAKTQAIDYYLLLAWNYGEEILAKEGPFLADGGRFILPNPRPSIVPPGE

MtmC [2] = biological target: T1, MtmC; test: crystal structure, […] Å; assay type: binding; settings: binary complex; C-terminal domain site; crystals pH 5.5

`C[S+](CC[C@H](N)C(=O)O)C[C@H]1O[C@@H](n2cnc3c(N)ncnc32)[C@H](O)[C@@H]1O` (some centres unmarked) [SAM] was tested, and the “crystal structure, 2.2 Å” value (MtmC [1]) was 4RVD (complex with SAM).

In the case of `Cc1cn([C@H]2C[C@H](O)[C@@H](COP(=O)(O)OP(=O)(O)O)O2)c(=O)[nH]c1=O` [TDP], the “crystal structure, 2.7 Å” value (MtmC [2]) is reported as 4RVF (complex with TDP).
